Source: patent publication US10385065B2, “Antibacterial compounds” (priority 2014, dated 2019)
In brackets after ≈: the same amount, converted by molar mass. Like-named read-outs stand apart in the source and are kept apart here.

How the values were obtained:
Type in all cases: cell-based
[1] = test system: S. aureus SACPX1-SP25 MSSA - FQ resistant; experiment: microbe, parasite or virus in culture; conditions: Staphylococcus aureus, ATCC 29213 / MSSA, read-out: MIC S. aureus SACPX1-SP25 MSSA - FQ resistant (isogenic mutant of ATCC 29213)
[2] = test system: Staphylococcus aureus ATCC 29213; experiment: MIC, broth microdilution, S. aureus ATCC 29213
[3] = test system: S. aureus NRS482 MRSA FQ resistant; experiment: MIC, S. aureus NRS482; conditions: Staphylococcus aureus; Table 2
[4] = test system: human hepatic cell line (HepG2 ATCC HB-8065); experiment: Human cell viability assay (CellTiter-Glo), HepG2; conditions: HepG2, 24 h incubation, tested over 1-128 μg/mL, read-out: IC50 values against HepG2
Experimental: Compounds are assessed for potential non-specific cytotoxic effects against a human hepatic cell line (HepG2 ATCC HB-8065). HepG2 cells are seeded at 20,000 cells/well in 96-well microtitre plates in minimal essential medium (MEM) supplemented with a final concentration of 10% FBS and 1 mM sodium pyruvate. After 24 h compound dilutions are prepared in Dulbecco's minimum essential media (DMEM) supplemented with final concentrations of 0.001% FBS, 0.3% bovine albumin and 0.02% HEPES and added to cells. Compounds are tested in two-fold serial dilutions over a final concentration range of 1-128 μg/mL in a final DMSO concentration of 1% vol/vol. Chlorpromazine is used as a positive control. Cells are incubated with compound at 37° C. and 5% CO2 for a further 24 h, after which time the CellTiter-Glo reagent (Promega) is added. Luminescence is measured on a BMG Omega plate reader. Data are analysed using GraphPad Prism software to determine the concentration of compound that inhibits cell viability by fifty percent (IC50).

[5] = test system: Escherichia coli ATCC 25922; experiment: MIC, broth microdilution, E. coli ATCC 25922; conditions: ATCC25922, Table 1, wild type strain
[6] = test system: Enterococcus faecium ATCC 19434; experiment: MIC, E. faecium ATCC 19434; conditions: ATCC19434, Table 2
[7] = test system: Haemophilus influenzae ATCC 49247; experiment: MIC, H. influenzae ATCC 49247; conditions: ATCC49247, Table 4
S. aureus NRS1 MRSA = experiment: MIC, S. aureus NRS1; conditions: Staphylococcus aureus; Table 2; read-out: MIC S. aureus NRS1 MRSA AMG & TET resistant
[8] = test system: S. aureus NRS127 MRSA LZD resistant; experiment: MIC, S. aureus NRS127; conditions: Staphylococcus aureus; Table 2
[9] = test system: S. aureus (MRSA) ATCC 43300; experiment: MIC, S. aureus ATCC 43300; conditions: Staphylococcus aureus; Table 2; read-out: MIC S. aureus (MRSA) ATCC 43300 Heterogeneous MRSA strain
[10] = test system: S. aureus VRS1 MRSA VAN resistant; experiment: MIC, S. aureus VRS1; conditions: Staphylococcus aureus, Table 2
[11] = test system: S. epidermidis NRS101 MRSE; experiment: MIC, S. epidermidis NRS101; conditions: Staphylococcus epidermidis; Table 2; read-out: MIC S. epidermidis NRS101 MRSE AMG, ERY resistant
[12] = ATCC29213, Table 1, wild type strain, read-out: MIC S. aureus ATCC 29213
[13] = ATCC 29213 / MSSA, Table 2, read-out: MIC S. aureus (MSSA) ATCC 29213 CLSI control strain

| SMILES | MIC (S. aureus NRS1 MRSA) [µg/mL] | MIC [8] [µg/mL] | MIC [9] [µg/mL] | MIC [10] [µg/mL] | MIC [11] [µg/mL] | MIC [1] [µg/mL] | MIC [2, 12] [µg/mL] | MIC [2, 13] [µg/mL] | MIC [3] [µg/mL] | IC50 [4] [µg/mL] | MIC [5] [µg/mL] | MIC [6] [µg/mL] | MIC [7] [µg/mL] |
| --- | --- | --- | --- | --- | --- | --- | --- | --- | --- | --- | --- | --- | --- |
| CCn1c(=O)c2ncoc2c2ccc(-c3cc(F)c(N)cc3F)c(C)c21 [Compound 2, 7-(4-amino-2,5-difluoro-phenyl)-5-ethyl-6-methyl-oxazolo[4,5-c]quinolin-4-one] |  |  |  |  |  | 1 to 10 (≈ 2.81 to 28.1 µM) | 1 to 10 (≈ 2.81 to 28.1 µM) | 1 to 10 (≈ 2.81 to 28.1 µM) | 1 to 10 (≈ 2.81 to 28.1 µM) | 10 to 100 (≈ 28.1 to 281 µM) | > 100 | > 100 | 10 to 100 (≈ 28.1 to 281 µM) |
| Cc1nc2c(=O)n(C3CC3)c3c(C)c(-c4cc(F)c(N)cc4F)ccc3c2o1 [Compound 4, 7-(4-amino-2,5-difluoro-phenyl)-5-cyclopropyl-2,6-dimethyl-oxazolo[4,5-c]quinolin-4-one] | 1 to 10 (≈ 2.62 to 26.2 µM) | < 1 | < 1 | < 1 |  | < 1 | < 1 | < 1 | < 1 | 10 to 100 (≈ 26.2 to 262 µM) | 1 to 10 (≈ 2.62 to 26.2 µM) | > 100 | < 1 |
| Cc1c(-c2cnc(N)nc2)ccc2c3ocnc3c(=O)n(C3CC3)c12 [Compound 14, 7-(2-aminopyrimidin-5-yl)-5-cyclopropyl-6-methyl-oxazolo[4,5-c]quinolin-4-one] | 1 to 10 (≈ 3 to 30 µM) |  | 1 to 10 (≈ 3 to 30 µM) |  |  | 1 to 10 (≈ 3 to 30 µM) | < 1 | < 1 | 1 to 10 (≈ 3 to 30 µM) | 10 to 100 (≈ 30 to 300 µM) | 10 to 100 (≈ 30 to 300 µM) | > 100 | 1 to 10 (≈ 3 to 30 µM) |
| Cc1c(-c2ccc(N)c(F)c2)ccc2c3ocnc3c(=O)n(C3CC3)c12 [Compound 38, 7-(4-amino-3-fluorophenyl)-5-cyclopropyl-6-methyl-oxazolo[4,5-c]quinolin-4-one] |  |  |  |  |  | < 1 | < 1 | < 1 | 1 to 10 (≈ 2.86 to 28.6 µM) | > 100 | 1 to 10 (≈ 2.86 to 28.6 µM) | > 100 | < 1 |

Further lines, with some results ahead:

| MIC (S. aureus NRS1 MRSA) [µg/mL] | MIC [8] [µg/mL] | MIC [9] [µg/mL] | MIC [10] [µg/mL] | MIC [11] [µg/mL] | SMILES | MIC [1] [µg/mL] | MIC [2, 12] [µg/mL] | MIC [2, 13] [µg/mL] | MIC [3] [µg/mL] | IC50 [4] [µg/mL] | MIC [5] [µg/mL] | MIC [6] [µg/mL] | MIC [7] [µg/mL] |
| --- | --- | --- | --- | --- | --- | --- | --- | --- | --- | --- | --- | --- | --- |
| < 1 | < 1 | < 1 | < 1 | < 1 | Cc1c(-c2cnc3[nH]nc(N)c3c2)ccc2c3ocnc3c(=O)n(C3CC3)c12 [Compound 21, 7-(3-amino-1H-pyrazolo[3,4-b]pyridine-5-yl)-5-cyclopropyl-6-methyl-oxazolo[4,5-c]quinolin-4-one] |  | < 1 | < 1 | < 1 | 10 to 100 (≈ 26.9 to 269 µM) | 10 to 100 (≈ 26.9 to 269 µM) | 1 to 10 (≈ 2.69 to 26.9 µM) | 1 to 10 (≈ 2.69 to 26.9 µM) |
| < 1 | < 1 | < 1 | < 1 | < 1 | Cc1c(-c2cc(F)c(CO)cc2F)ccc2c3ocnc3c(=O)n(C3CC3)c12 [Compound 25, 5-cyclopropyl-7-[2,5-difluoro-4-(hydroxymethyl)phenyl]-6-methyl-oxazolo[4,5-c]quinolin-4-one] |  | < 1 | < 1 | < 1 | 10 to 100 (≈ 26.2 to 262 µM) | 1 to 10 (≈ 2.62 to 26.2 µM) | 10 to 100 (≈ 26.2 to 262 µM) | < 1 |
| 1 to 10 (≈ 2.68 to 26.8 µM) | 1 to 10 (≈ 2.68 to 26.8 µM) | 1 to 10 (≈ 2.68 to 26.8 µM) | 1 to 10 (≈ 2.68 to 26.8 µM) | < 1 | Cc1nc2c(=O)n(C3CC3)c3c(C)c(-c4ccc(C(N)=O)cc4)ccc3c2o1 [Compound 26] |  | < 1 | < 1 | 1 to 10 (≈ 2.68 to 26.8 µM) | > 100 | > 100 | > 100 | 1 to 10 (≈ 2.68 to 26.8 µM) |
| 1 to 10 (≈ 2.24 to 22.4 µM) | 1 to 10 (≈ 2.24 to 22.4 µM) | 1 to 10 (≈ 2.24 to 22.4 µM) | 1 to 10 (≈ 2.24 to 22.4 µM) |  | CCOC(=O)CNC(=O)c1ccc(-c2ccc3c4ocnc4c(=O)n(C4CC4)c3c2C)cc1 [Compound 30, ethyl-2-[{4-(5-cyclopropyl-6-methyl-4-oxo-oxazolo[4,5-c]quinolin-7-yl)benzoyl}amino]acetate] |  | 1 to 10 (≈ 2.24 to 22.4 µM) | 1 to 10 (≈ 2.24 to 22.4 µM) | 1 to 10 (≈ 2.24 to 22.4 µM) | 10 to 100 (≈ 22.4 to 224 µM) | > 100 | > 100 | 1 to 10 (≈ 2.24 to 22.4 µM) |
